For 26 compounds, EC50 results are on record in US8431565B2 (priority 2007, dated 2013).

A word on the EC50: it is the concentration at which the effect is half-maximal. A higher EC50 goes with lower potency in that assay.

The first assay deals with human CB1 receptor (hCB1) (Homo sapiens, UniProt P21554). Format: cell-based.
human CB1 receptor (hCB1), sequence (P21554 whole entry): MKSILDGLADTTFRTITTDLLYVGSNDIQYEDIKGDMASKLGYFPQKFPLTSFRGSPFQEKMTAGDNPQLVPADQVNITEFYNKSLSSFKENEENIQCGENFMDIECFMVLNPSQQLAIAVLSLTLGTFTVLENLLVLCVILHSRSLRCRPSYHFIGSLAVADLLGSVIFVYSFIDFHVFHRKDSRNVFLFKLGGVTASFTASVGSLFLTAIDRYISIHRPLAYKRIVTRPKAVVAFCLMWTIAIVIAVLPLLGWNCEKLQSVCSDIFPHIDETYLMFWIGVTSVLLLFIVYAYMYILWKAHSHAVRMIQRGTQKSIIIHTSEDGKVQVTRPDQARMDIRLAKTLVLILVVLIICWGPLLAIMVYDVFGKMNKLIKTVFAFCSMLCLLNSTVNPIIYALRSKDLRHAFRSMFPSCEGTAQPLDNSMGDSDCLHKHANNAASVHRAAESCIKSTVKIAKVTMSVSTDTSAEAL
`CNC(=O)[C@@H](NC(=O)c1nc(-c2ccc(=O)[nH]c2)n2c1CN(C)CCC2)C(C)(C)C` [Compound 645, (S)-N-(3,3-dimethyl-1-(methylamino)-1-oxobutan-2-yl)-8-methyl-3-(6-oxo-1,6-dihydropyridin-3-yl)-6,7,8,9-tetrahydro-5H-imidazo[1,5-a][1,4]diazepine-1-carboxamide] registered an EC50 greater than 10000 nM.

Another assay addresses T1, rat CB2 receptor (rCB2) (Rattus norvegicus, UniProt Q9QZN9).
T1 sequence (Q9QZN9 1-360): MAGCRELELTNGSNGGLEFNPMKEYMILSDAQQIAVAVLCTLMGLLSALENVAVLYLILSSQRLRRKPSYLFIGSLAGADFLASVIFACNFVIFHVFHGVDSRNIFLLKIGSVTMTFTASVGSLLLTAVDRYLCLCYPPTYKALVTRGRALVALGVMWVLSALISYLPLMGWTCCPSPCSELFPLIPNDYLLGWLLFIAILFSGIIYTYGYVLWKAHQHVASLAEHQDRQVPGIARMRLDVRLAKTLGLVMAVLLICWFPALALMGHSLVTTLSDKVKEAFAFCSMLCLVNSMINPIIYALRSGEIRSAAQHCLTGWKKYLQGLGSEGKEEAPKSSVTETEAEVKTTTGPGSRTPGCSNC
`COC(=O)N1CCn2c(-c3ccc(Cl)cc3)nc(C(=O)N[C@H](CO)C(C)(C)C)c2C1` [Compound 184, (S)-methyl 3-(4-chlorophenyl)-1-(1-hydroxy-3,3-dimethylbutan-2-ylcarbamoyl)-5,6-dihydroimidazo[1,5-a]pyrazine-7(8H)-carboxylate] came in with a half-maximal effective concentration (EC50) of 10 to 100 nM. For the compound `CC(C)(C)C(=O)N1CCn2c(-c3ccccc3)nc(C(=O)NC3C4(C)CCC(C4)C3(C)C)c2C1` (centres unmarked) [Compound 123, 3-phenyl-7-pivaolyl-N-(1,3,3-trimethylbicyclo[2.2.1]heptan-2-yl)-5,6,7,8-tetrahydroimidazo[1,5-a]pyrazine-1-carboxamide], the 50% effective concentration (EC50) was 10 to 100 nM. Still for that read-out and setting: the figure for `Cc1noc([C@@H](NC(=O)c2nc(-c3ccccc3)n3c2CN(C)CC3)C(C)(C)C)n1` [Compound 87, (S)-N-(2,2-dimethyl-1-(3-methyl-1,2,4-oxadiazol-5-yl)propyl)-7-methyl-3-phenyl-5,6,7,8-tetrahydroimidazo[1,5-a]pyrazine-1-carboxamide] is 10 to 100 nM; for `CNC(=O)[C@@H](NC(=O)c1nc(-c2ccccc2)n2c1CN(S(=O)(=O)c1ccc(Cl)cc1)CC2)C(C)(C)C` [Compound 106, (S)-7-(4-chlorophenylsulfonyl)-N-(3,3-dimethyl-1-(methylamino)-1-oxobutan-2-yl)-3-phenyl-5,6,7,8-tetrahydroimidazo[1,5-a]pyrazine-1-carboxamide] it is 10 to 100 nM. In turn, `COC(=O)N1CCn2c(-c3ccc(Cl)cc3)nc(C(=O)NCCC(C)C)c2C1` [Compound 183, methyl 3-(4-chlorophenyl)-1-(isopentylcarbamoyl)-5,6-dihydroimidazol[1,5-a]pyrazine-7(8H)-carboxylate] registered an EC50 of 10 to 100 nM. Same read-out and setting: for `CNC(=O)[C@@H](NC(=O)c1nc(-c2ccsc2)n2c1CN(CC1CC1)CC2)C(C)(C)C` [Compound 74, (S)-7-(cyclopropylmethyl)-N-(3,3-dimethyl-1-(methylamino)-1-oxobutan-2-yl)-3-(thiophen-3-yl)-5,6,7,8-tetrahydroimidazo[1,5-a]pyrazine-1-carboxamide] the value was 10 to 100 nM; for `CCN1CCn2c(-c3ccc(Cl)cc3)nc(C(=O)NCCC(C)C)c2C1` [Compound 158, 3-(4-chlorophenyl)-7-ethyl-N-isopentyl-5,6,7,8-tetrahydroimidazo[1,5-a]pyrazine-1-carboxamide], 10 to 100 nM. Consider `CNC(=O)[C@@H](NC(=O)c1nc(-c2ccsc2)n2c1CN(S(=O)(=O)c1ccc(F)cc1)CC2)C(C)(C)C` [Compound 109, (S)-N-(3,3-dimethyl-1-(methylamino)-1-oxobutan-2-yl)-7-(4-fluorophenylsulfonyl)-3-(thiophen-3-yl)-5,6,7,8-tetrahydroimidazo[1,5-a]pyrazine-1-carboxamide], for which the EC50 was in the range of 10 to 100 nM. For the compound `CNC(=O)[C@H](CC(C)C)NC(=O)c1nc(-c2ccc(Cl)c(F)c2)n2c1CN(C)CC2` [Compound 277, (S)-3-(4-chloro-3-fluorophenyl)-7-methyl-N-(4-methyl-1-(methylamino)-1-oxopentan-2-yl)-5,6,7,8-tetrahydroimidazo[1,5-a]pyrazine-1-carboxamide], the concentration for a half-maximal effect (EC50) fell in the range of 10 to 100 nM. Take `CC(C)CN1CCn2c(-c3ccccc3)nc(C(=O)N[C@H](C)C(C)(C)C)c2C1` [Compound 52, (R)-N-(3,3-dimethylbutan-2-yl)-7-isobutyl-3-phenyl-5,6,7,8-tetrahydrimidazo[1,5-a]pyrazine-1-carboxamide]: the concentration for a half-maximal effect (EC50) lay in the range of 0.1 to 10 nM.

`CNC(=O)[C@@H](NC(=O)c1nc(-c2ccccc2)n2c1CN(C(=O)C(C)C)CC2)C(C)(C)C` [Compound 191, (S)-N-(3,3-dimethyl-1-(methylamino)-1-oxobutan-2-yl)-7-isobutyryl-3-phenyl-5,6,7,8-tetrahydroimidazo[1,5-a]pyrazine-1-carboxamide] showed a concentration giving a half-maximal response (EC50) of 10 to 100 nM. Take `CCN1CCn2c(-c3ccc(Cl)cc3)nc(C(=O)N[C@H](CO)C(C)(C)C)c2C1` [Compound 161, (S)-3-(4-chlorophenyl)-7-ethyl-N-(1-hydroxy-3,3-dimethylbutan-2-yl)-5,6,7,8-tetrahydroimidazo[1,5-a]pyrazine-1-carboxamide]: the concentration for a half-maximal effect (EC50) lay within 10 to 100 nM. On to `CNC(=O)[C@@H](NC(=O)c1nc(-c2ccc(C)cc2F)n2c1CN(C)CC2)C(C)(C)C` [Compound 249, (S)-N-(3,3-dimethyl-1-(methylamino)-1-oxobutan-2-yl)-3-(2-fluoro-4-methylphenyl)-7-methyl-5,6,7,8-tetrahydroimidazo[1,5-a]pyrazine-1-carboxamide], for which the EC50 was in the range of 10 to 100 nM.

`CC12CCC(C1)C(C)(C)C2NC(=O)c1nc(-c2ccccc2)n2c1CN(C(=O)C1CC1)CC2` (centres unmarked) [Compound 119, 7-(cyclopropanecarbonyl)-3-phenyl-N-(1,3,3-trimethyl-bicyclo[2.2.1]heptan-2-yl)-5,6,7,8-tetrahydroimidazo[1,5-a]pyrazine-1-carboxamide] showed an EC50 of 10 to 100 nM. `CNC(=O)[C@@H](NC(=O)c1nc(-c2ccccc2)n2c1CN(S(=O)(=O)c1ccc(F)cc1)CC2)C(C)(C)C` [Compound 93, (S)-N-(3,3-dimthyl-1-(methylamino)-1-oxobutan-2-yl)-7-(4-fluorophenylsulfonyl)-3-phenyl-5,6,7,8-tetrahydroimidazo[1,5-a]pyrazine-1-carboxamide] showed an EC50 of 10 to 100 nM. On to `CNC(=O)[C@@H](NC(=O)c1nc(C2=CCNCC2)n2c1CN(C)CC2)C(C)(C)C` [Compound 274, (S)-N-(3,3-dimethyl-1-(methylamino)-1-oxobutan-2-yl)-7-methyl-3-(1,2,3,6-tetrahydropyridin-4-yl)-5,6,7,8-tetrahydroimidazo[1,5-a]pyrazine-1-carboxamide], for which the EC50 is 10 to 100 nM. On the same count and under the same terms, for `CNC(=O)[C@@H](NC(=O)c1nc(-c2ccc(-c3ccccc3)cc2)n2c1CN(C)CC2)C(C)(C)C` [Compound 265, (S)-3-(biphenyl-4-yl)-N-(3,3-dimethyl-1-(methylamino)-1-oxobutan-2-yl)-7-methyl-5,6,7,8-tetrahydroimidazo[1,5-a]pyrazine-1-carboxamide] the value was 10 to 100 nM; for `CNC(=O)[C@@H](NC(=O)c1nc(-c2ccccc2)n2c1CN(CCC(C)(C)C)CC2)C(C)(C)C` [Compound 54, (S)-N-(3,3-dimethyl-1-(methylamino)-1-oxobutan-2-yl)-7-(3,3-dimethylbutyl)-3-phenyl-5,6,7,8-tetrahydroimidazo[1,5-a]pyrazine-1-carboxamide], 10 to 100 nM. For `Cc1ccc(-c2nc(C(=O)N[C@H](c3nc(C)no3)C(C)(C)C)c3n2CCCNC3)c(F)c1` [Compound 520, (S)-N-(2,2-dimethyl-1-(3-methyl-1,2,4-oxadiazol-5-yl)propyl)-3-(2-fluoro-4-methylphenyl)-6,7,8,9-tetrahydro-5H-imidazo[1,5-a][1,4]diazepine-1-carboxamide], the half-maximal effective concentration (EC50) lay within 10 to 100 nM.

With `CNC(=O)[C@@H](NC(=O)c1nc(-c2ccc(C(C)(C)C)cc2)n2c1CN(C)CCC2)C(C)(C)C` [Compound 414, (S)-3-(4-tert-butylphenyl)-N-(3,3-dimethyl-1-(methylamino)-1-oxobutan-2-yl)-8-methyl-6,7,8,9-tetrahydro-5H-imidazo[1,5-a][1,4]diazepine-1-carboxamide], the concentration for a half-maximal effect (EC50) fell in the range of 10 to 100 nM.

In the case of `CNC(=O)[C@@H](NC(=O)c1nc(-c2ccccc2)n2c1CN(C1CC1)CC2)C(C)(C)C` [Compound 197, (S)-7-cyclopropyl-N-(3,3-dimethyl-1-(methylamino)-1-oxobutan-2-yl)-3-phenyl-5,6,7,8-tetrahydroimidazo[1,5-a]pyrazine-1-carboxamide], the EC50 is 10 to 100 nM. Compound `CC(C)CN1CCn2c(-c3ccccc3)nc(C(=O)N[C@@H](CO)C(C)(C)C)c2C1` [Compound 68, (R)-N-(1-hydroxy-3,3-dimethylbutan-2-yl)-7-isobutyl-3-phenyl-5,6,7,8-tetrahydroimidazo[1,5-a]pyrazine-1-carboxamide] came in with an EC50 of 0.1 to 10 nM. Turning to `CNC(=O)[C@@H](NC(=O)c1nc(-c2ccccc2)n2c1CN(S(=O)(=O)c1ccc(C(F)(F)F)cc1)CC2)C(C)(C)C` [Compound 107, (S)-N-(3,3-dimethyl-1-(methylamino)-1-oxobutan-2-yl)-3-phenyl-7-(4-(trifluoromethyl)phenylsulfonyl)-5,6,7,8-tetrahydroimidazo[1,5-a]pyrazine-1-carboxamide], the EC50 lay within 10 to 100 nM. For the compound `CNC(=O)[C@@H](NC(=O)c1nc(-c2ccc3ccccc3c2)n2c1CN(C)CCC2)C(C)(C)C` [Compound 380, (S)-N-(3,3-dimethyl-1-(methylamino)-1-oxobutan-2-yl)-8-methyl-3-(naphthalen-2-yl)-6,7,8,9-tetrahydro-5H-imidazo[1,5-a][1,4]diazepine-1-carboxamide], the EC50 fell in the range of 10 to 100 nM. Same read-out and setting: the figure for `CNC(=O)[C@@H](NC(=O)c1nc(-c2ccc(C)c(F)c2)n2c1CN(C)CC2)C(C)(C)C` [Compound 240, (S)-N-(3,3-dimethyl-1-(methylamino)-1-oxobutan-2-yl)-3-(3-fluoro-4-methylphenyl)-7-methyl-5,6,7,8-tetrahydroimidazo[1,5-a]pyrazine-1-carboxamide] is 10 to 100 nM.
